Common to all, as to format: in vivo
In assay [1] the test system is Tetranychus urticae (spider mites - ova). The experiment in a line: Contact test, spider mites - ova (TUe), French bean leaf. Particulars: 144 h, 500 ppm, 6 days, read-out: TUE grading of mortality. The procedure: (§1) The activity of the Product was determined using a variety of insect pests. The Product was used in the form of liquid preparations containing from 100 to 500 parts per million (ppm) by weight of the Product. The preparations were made by dissolving the Product in acetone and diluting the solutions with water containing 0.1% by weight of a wetting agent sold under the trade name "SYNPERONIC" NX until the liquid preparations contained the required concentration of the Product. "SYNPERONIC" is a Registered Trade Mark. The test procedure adopted with regard to each pest was basically the same and comprised supporting a number of the pests on a medium which was usually a host plant or a foodstuff on which the pests feed, and treating either or both the pests and the medium with the preparations. The mortality of the pests was then assessed at periods usually varying from one to seven days after the treatment.

The subject of assay [2] is Meloidogyne incognita (Tomato root knot eelworm - larvae). The experiment in a line: Residual test, Tomato root knot eelworm - larvae (MI), Semi in-vitro. Particulars: 168 h, rate column 500 ppm, application rate is half that recorded, 7 days, read-out: MI grading of mortality.
Assay [3] concerns Spodoptera exigua (lesser army worm - larvae). The experiment in a line: Residual test, lesser army worm - larvae (SP), Cotton leaf. Particulars: 72 h, 500 ppm, 3 days, read-out: SP grading of mortality. The protocol: (§2) The activity of the Product was determined using a variety of insect pests. The Product was used in the form of liquid preparations containing from 100 to 500 parts per million (ppm) by weight of the Product. The preparations were made by dissolving the Product in acetone and diluting the solutions with water containing 0.1% by weight of a wetting agent sold under the trade name "SYNPERONIC" NX until the liquid preparations contained the required concentration of the Product. "SYNPERONIC" is a Registered Trade Mark.
(§3) The test procedure adopted with regard to each pest was basically the same and comprised supporting a number of the pests on a medium which was usually a host plant or a foodstuff on which the pests feed, and treating either or both the pests and the medium with the preparations. The mortality of the pests was then assessed at periods usually varying from one to seven days after the treatment.
(§4) The results of the tests are given in Table III for each of the Products, at the rate in parts per million given in the second column as a grading of mortality designated as A, B or C wherein A indicates 80-100% mortality or knockdown (70-100% for Meloidogyne incognita), B indicates 50-79% mortality knockdown or knockdown (50-69% for Meloidogyne incognita) and C indicates less than 50% mortality or knockdown.
(§5) In Table III the pest organism used is designated by a letter code and the pests species, the support medium or food, and the type and duration of test is given in Table II.
(lesser army worm - larvae)

In assay [4] the test system is Blattella germanica (cockroach nymphs). Put plainly: Residual test, cockroach nymphs (BG), Plastic pot. Particulars: 72 h, 500 ppm, 3 days, read-out: BG grading of mortality. The protocol:
as §1

The subject of assay [5] is Musca domestica (houseflies - adults). The experiment in a line: Knockdown test, houseflies - adults (MD/KD), Cotton wool/sugar. Particulars: 500 ppm, 4 hours, read-out: MD/KD grading of knockdown. The protocol:
as §2, §3
In the case of the species Musca domestica (housefly), an additional assessment to determine the knockdown effect of the compounds was performed.
as §5

The test system of assay [6] is Tetranychus urticae (spider mites - adult). The experiment in a line: Contact test, spider mites - adult (TUa), French bean leaf. As to conditions: 72 h, 500 ppm, 3 days, read-out: TUA grading of mortality. The procedure:
as §1

The subject of assay [7] is Nilaparvata lugens (brown plant hopper - nymphs). Put plainly: Contact test, brown plant hopper - nymphs (NL), Rice plant. Particulars: 72 h, 500 ppm, 3 days, read-out: NL grading of mortality. The protocol: as §1
The subject of another assay is Myzus persicae (aphids). The experiment in a line: Contact test, aphids (MP), Chinese Cabbage leaf. As to conditions: 72 h, 500 ppm, 3 days, read-out: MP grading of mortality. The procedure:
as §1, with “treatment. […] In Table III the pest organism used is designated by a letter code and the pests species, the support medium or food, and the type and duration of test is given in Table II.” for “treatment.”

The test system of assay [8] is Diabrotica balteata (rootworm larvae). The experiment in a line: Residual test, rootworm larvae (DB), Filter paper/maize seed. Particulars: 72 h, 500 ppm, 3 days, read-out: DB grading of mortality. The protocol: as §1
The test system of assay [9] is Musca domestica (houseflies - adults). The experiment in a line: Contact test, houseflies - adults (MD), Cotton wool/sugar. Particulars: 24 h, 500 ppm, 1 day, read-out: MD grading of mortality. The procedure:
as §1

Assay [10] concerns Heliothis virescens (tobacco budworm - larvae). Put plainly: Residual test, tobacco budworm - larvae (HV), Cotton leaf. Particulars: 72 h, read-out: HV grading of mortality. The protocol: as §2, §3, §4, §5
(tobacco budworm - larvae)

Some results are limits rather than exact numbers.

Take `Fc1ccc(CCCC(c2ccc(OC(F)(F)F)cc2)C(F)F)cc1Oc1ccccc1` (racemic) [Compound 27, 1,1-Difluoro-2-(4-trifluoromethoxyphenyl)-5-(4-fluoro-3-phenoxyphenyl)pentane]: the mortality at 500 ppm in [1] was less than 50%; in assay [3], 80 to 100%; in assay [4] it was 80 to 100%; in assay [6], 80 to 100%; in assay [7], 80 to 100%; with Myzus persicae (aphids) it was 80 to 100%. The mortality at 500 ppm in assay [8], in assay [9] and in assay [10] was 80 to 100% in each case. Besides, the mortality at 250 µg/mL in assay [2] was less than 50%. Moreover, the pest or weed control at 500 ppm in [5] fell in the range of 80 to 100%.

`CCOc1ccc(C(CCCc2c(F)c(F)c(F)c(F)c2F)C(F)(F)F)cc1` (racemic) [Compound 43, 1,1,1-Trifluoro-2-(4-ethoxyphenyl)-5-(pentafluorophenyl)pentane]: the mortality at 500 ppm was less than 50% in assay [1]; 80 to 100% in assay [3]; 50 to 79% in assay [4]; less than 50% in [6]; less than 50% in assay [7]; less than 50% in the assay on Myzus persicae (aphids). In addition, the mortality at 500 ppm in [8] is 80 to 100%; in assay [9], 50 to 79%; in [10], less than 50%. Besides, in [2], the mortality at 250 µg/mL was less than 50%. The pest or weed control at 500 ppm in [5] lay within 50 to 79%.

With `FC(F)C(CCCc1cccc(Oc2ccccc2)c1)c1ccc(OC(F)(F)F)cc1` (racemic) [Compound 83, 1,1-Difluoro-2-(4-trifluoromethoxyphenyl)-5-(3-phenoxyphenyl)pentane], the mortality at 500 ppm (in [1]; in assay [3]; in [4]; in assay [6]; in assay [7]; with Myzus persicae (aphids)) was 80 to 100% throughout. The mortality at 500 ppm in [8], in [9] and in assay [10] was 80 to 100% each time. Moreover, the pest or weed control at 500 ppm in assay [5] was in the range of 80 to 100%.

On to `CCOc1ccc(C(CCCc2ccc(F)c(Cc3ccccc3)c2)C(F)(F)F)cc1` (racemic) [Compound 106, 1,1,1-Trifluoro-2-(4-ethoxyphenyl)-5-(3-benzyl-4-fluorophenyl)pentane], for which the mortality at 500 ppm (in [1]; in assay [3]; in assay [4]; in assay [6]; in [7]; with Myzus persicae (aphids)) was 80 to 100% each time. Besides, the mortality at 500 ppm in assay [8], in [9] and in assay [10] was 80 to 100% each time. The pest or weed control at 500 ppm in assay [5] lay in the range of 80 to 100%.

On to `FC(F)(F)C(CCCc1cccc(Oc2ccccc2)c1)c1ccc2c(c1)OCO2` (stereo not drawn) [Compound 40, 1,1,1-Trifluoro-2-(3,4-methylenedioxy)phenyl-5-(3-phenoxyphenyl)pentane], for which the mortality at 500 ppm was less than 50% in assay [1]; 80 to 100% in assay [3]; 50 to 79% in [4]; less than 50% in [6]; less than 50% in [7]; 80 to 100% in the assay with Myzus persicae (aphids). For the same compound, the mortality at 500 ppm in assay [8], in [9] and in assay [10] was 80 to 100% in each case. The pest or weed control at 500 ppm in assay [5] was 80 to 100%.

As to `FC(F)(F)C(=CCCc1cccc(Oc2ccccc2)c1)c1ccc2c(c1)OCO2` [Compound 41, 1,1,1-Trifluoro-2-(3,4-methylenedioxyphenyl)-5-(3-phenoxyphenyl)pent-2-ene], the mortality at 500 ppm in [1] is less than 50%; in [3], 50 to 79%; in [4], less than 50%; in [6], less than 50%; in assay [7], less than 50%; in the assay on Myzus persicae (aphids), less than 50%. Also, the mortality at 500 ppm in [8] fell in the range of 80 to 100%; in assay [9], 80 to 100%; in assay [10], 50 to 79%. Besides, in assay [5], the pest or weed control at 500 ppm fell in the range of 80 to 100%.

Take `CCOc1ccc(C(CCCc2cccc(Oc3ccccc3)n2)C(F)(F)F)cc1` (stereo not drawn) [Compound 98]: the mortality at 500 ppm is less than 50% in assay [1]; 80 to 100% in [3]; 80 to 100% in [4]; 80 to 100% in assay [6]; less than 50% in [7]; 80 to 100% in the assay with Myzus persicae (aphids). In addition, the mortality at 500 ppm in assay [8], in assay [9] and in assay [10] was 80 to 100% throughout. Moreover, the pest or weed control at 500 ppm in [5] was 80 to 100%.

`Fc1ccc(C=CC=C(c2ccc(OC(F)(F)F)cc2)C(F)(F)F)cc1Cc1ccccc1` [Compound 105, 1,1,1-Trifluoro-2-(4-trifluoromethoxyphenyl)-5-(4-fluoro-3-benzylphenyl)penta-2,4-diene]: the mortality at 500 ppm (in assay [1]; in assay [3]; in [4]; in [6]; in [7]; with Myzus persicae (aphids)) was 80 to 100% each time. Further, the mortality at 500 ppm is 80 to 100% in assay [8], less than 50% in assay [9] and less than 50% in assay [10]. Also, the pest or weed control at 500 ppm in assay [5] was less than 50%.

`CCOc1ccc(C(=CC=Cc2ccc(F)c(Cc3ccccc3)c2)C(F)(F)F)cc1` [Compound 107, 1,1,1-Trifluoro-2-(4-ethoxyphenyl)-5-(4-fluoro-3-benzylphenyl)penta-2,4-diene]: the mortality at 500 ppm is less than 50% in [1]; 80 to 100% in assay [3]; less than 50% in [4]; less than 50% in assay [6]; 50 to 79% in [7]; 80 to 100% with Myzus persicae (aphids). For the same compound, the mortality at 500 ppm is 80 to 100% in assay [8], less than 50% in assay [9] and less than 50% in [10]. Also, the pest or weed control at 500 ppm in assay [5] was less than 50%.

For the compound `Fc1ccc(CCCC(c2ccc(OC(F)(F)F)cc2)C(F)(F)F)cc1Cc1ccccc1` (stereo not drawn) [Compound 108], the mortality at 500 ppm (in assay [1]; in [3]; in [4]; in assay [6]; in assay [7]; in the assay with Myzus persicae (aphids)) was 80 to 100% throughout. Also, the mortality at 500 ppm was less than 50% in assay [8], 80 to 100% in assay [9] and 80 to 100% in assay [10]. Besides, the pest or weed control at 500 ppm in [5] was 80 to 100%.

A word on the mortality: it is the share of the test organisms that died.

Source of the values: US4791139A, “Diphenyl ether derivatives and their use as insecticides” (Imperial Chemical Industries PLC, priority 1986, dated 1988).
